ΔTm data for seven molecules are collected here from ChEMBL document CHEMBL1145498, “A systematic interaction map of validated kinase inhibitors with Ser/Thr kinases” (Proc Natl Acad Sci U S A, 2007).

Test [1] addresses T1, Serine/threonine-protein kinase 17A (Homo sapiens) (UniProt Q9UEE5).
T1 sequence (whole entry): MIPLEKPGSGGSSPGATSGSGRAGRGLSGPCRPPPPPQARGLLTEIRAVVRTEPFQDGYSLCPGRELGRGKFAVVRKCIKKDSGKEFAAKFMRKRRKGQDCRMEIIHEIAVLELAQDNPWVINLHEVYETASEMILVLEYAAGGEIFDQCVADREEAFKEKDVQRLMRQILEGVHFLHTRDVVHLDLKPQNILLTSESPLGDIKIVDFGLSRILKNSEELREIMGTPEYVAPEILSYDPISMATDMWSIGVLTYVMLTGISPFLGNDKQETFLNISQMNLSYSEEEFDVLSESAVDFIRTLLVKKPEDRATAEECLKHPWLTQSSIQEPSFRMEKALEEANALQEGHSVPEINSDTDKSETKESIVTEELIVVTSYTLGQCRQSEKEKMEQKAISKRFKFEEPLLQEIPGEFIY

Test [2] has as its target Serine/threonine-protein kinase pim-3 (Homo sapiens) (UniProt Q86V86).
For test [3], the target named is Serine/threonine-protein kinase PAK 5 (Homo sapiens) (UniProt Q9P286).
The target of test [4] is Cyclin-dependent kinase-like 1 (Homo sapiens) (UniProt Q00532).
Test [5] addresses Ribosomal protein S6 kinase alpha-3 (Homo sapiens) (UniProt P51812).
Test [6] has as its target Serine/threonine-protein kinase 38 (Homo sapiens) (UniProt Q15208).
Test [7] deals with Calcium/calmodulin-dependent protein kinase type 1D (Homo sapiens) (UniProt Q8IU85).
For test [8], the target named is Mitogen-activated protein kinase 3 (Homo sapiens, UniProt P27361).
Test [9] concerns the target Serine/threonine-protein kinase 16 (Homo sapiens) (UniProt O75716).
Test [10] has as its target T2, Lymphokine-activated killer T-cell-originated protein kinase (Homo sapiens) (UniProt Q96KB5).
T2 sequence (whole entry): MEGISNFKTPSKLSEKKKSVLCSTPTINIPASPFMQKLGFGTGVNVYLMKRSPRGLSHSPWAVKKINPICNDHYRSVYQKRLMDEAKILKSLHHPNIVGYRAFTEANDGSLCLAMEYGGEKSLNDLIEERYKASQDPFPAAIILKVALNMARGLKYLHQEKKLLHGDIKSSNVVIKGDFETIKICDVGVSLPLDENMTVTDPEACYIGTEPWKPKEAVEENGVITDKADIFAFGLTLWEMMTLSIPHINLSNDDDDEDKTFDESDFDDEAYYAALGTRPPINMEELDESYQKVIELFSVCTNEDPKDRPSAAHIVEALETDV

Test [11] deals with Cyclin-dependent kinase 16 (Homo sapiens) (UniProt Q00536).
For test [12], the target named is T3, Serine/threonine-protein kinase Nek2 (Homo sapiens) (UniProt P51955).
T3 sequence (whole entry): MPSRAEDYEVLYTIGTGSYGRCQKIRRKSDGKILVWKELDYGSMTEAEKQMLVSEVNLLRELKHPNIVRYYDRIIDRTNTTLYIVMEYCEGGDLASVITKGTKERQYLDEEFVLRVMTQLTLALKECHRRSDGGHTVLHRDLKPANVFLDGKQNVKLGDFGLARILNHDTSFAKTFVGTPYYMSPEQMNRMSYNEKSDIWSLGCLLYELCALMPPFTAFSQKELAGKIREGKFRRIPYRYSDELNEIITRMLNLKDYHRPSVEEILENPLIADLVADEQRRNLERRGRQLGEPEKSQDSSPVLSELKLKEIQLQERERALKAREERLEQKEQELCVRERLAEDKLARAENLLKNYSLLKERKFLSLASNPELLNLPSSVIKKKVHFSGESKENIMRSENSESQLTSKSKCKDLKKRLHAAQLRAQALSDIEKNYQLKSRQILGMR

The target in test [13] is Serine/threonine-protein kinase 26 (Homo sapiens) (UniProt Q9P289).
The target of test [14] is Cyclin-dependent kinase 6 (Homo sapiens) (UniProt Q00534).
Test [15] addresses T4, Serine/threonine-protein kinase 4 (Homo sapiens) (UniProt Q13043).
T4 sequence (whole entry): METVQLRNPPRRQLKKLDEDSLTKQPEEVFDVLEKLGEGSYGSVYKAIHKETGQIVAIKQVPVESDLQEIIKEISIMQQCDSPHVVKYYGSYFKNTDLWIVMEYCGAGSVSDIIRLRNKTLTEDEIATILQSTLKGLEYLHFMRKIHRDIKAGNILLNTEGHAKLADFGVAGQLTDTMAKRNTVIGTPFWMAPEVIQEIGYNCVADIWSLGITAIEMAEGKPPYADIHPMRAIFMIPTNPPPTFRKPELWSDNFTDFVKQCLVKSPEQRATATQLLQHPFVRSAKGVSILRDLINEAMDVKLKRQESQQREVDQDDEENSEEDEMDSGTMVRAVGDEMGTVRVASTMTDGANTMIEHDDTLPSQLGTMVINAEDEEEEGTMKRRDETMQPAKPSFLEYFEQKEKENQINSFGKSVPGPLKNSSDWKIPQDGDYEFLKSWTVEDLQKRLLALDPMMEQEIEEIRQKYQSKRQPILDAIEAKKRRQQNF

Test [16] concerns the target Serine/threonine-protein kinase PAK 4 (Homo sapiens) (UniProt O96013).
Test [17] deals with T5, Dual specificity mitogen-activated protein kinase kinase 6 (Homo sapiens) (UniProt P52564).
T5 sequence (whole entry): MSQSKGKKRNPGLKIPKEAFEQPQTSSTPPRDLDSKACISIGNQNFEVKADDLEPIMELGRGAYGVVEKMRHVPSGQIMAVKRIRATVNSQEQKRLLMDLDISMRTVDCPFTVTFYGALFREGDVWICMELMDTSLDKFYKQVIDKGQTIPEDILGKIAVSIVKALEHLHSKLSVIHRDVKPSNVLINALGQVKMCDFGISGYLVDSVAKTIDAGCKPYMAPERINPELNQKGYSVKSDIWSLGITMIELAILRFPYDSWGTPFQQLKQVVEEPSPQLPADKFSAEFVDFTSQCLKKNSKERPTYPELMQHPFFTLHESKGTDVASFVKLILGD

The target of test [18] is Mitogen-activated protein kinase 11 (Homo sapiens, UniProt Q15759).

Ribosomal protein S6 kinase alpha-3 (Homo sapiens), sequence (P51812 whole entry): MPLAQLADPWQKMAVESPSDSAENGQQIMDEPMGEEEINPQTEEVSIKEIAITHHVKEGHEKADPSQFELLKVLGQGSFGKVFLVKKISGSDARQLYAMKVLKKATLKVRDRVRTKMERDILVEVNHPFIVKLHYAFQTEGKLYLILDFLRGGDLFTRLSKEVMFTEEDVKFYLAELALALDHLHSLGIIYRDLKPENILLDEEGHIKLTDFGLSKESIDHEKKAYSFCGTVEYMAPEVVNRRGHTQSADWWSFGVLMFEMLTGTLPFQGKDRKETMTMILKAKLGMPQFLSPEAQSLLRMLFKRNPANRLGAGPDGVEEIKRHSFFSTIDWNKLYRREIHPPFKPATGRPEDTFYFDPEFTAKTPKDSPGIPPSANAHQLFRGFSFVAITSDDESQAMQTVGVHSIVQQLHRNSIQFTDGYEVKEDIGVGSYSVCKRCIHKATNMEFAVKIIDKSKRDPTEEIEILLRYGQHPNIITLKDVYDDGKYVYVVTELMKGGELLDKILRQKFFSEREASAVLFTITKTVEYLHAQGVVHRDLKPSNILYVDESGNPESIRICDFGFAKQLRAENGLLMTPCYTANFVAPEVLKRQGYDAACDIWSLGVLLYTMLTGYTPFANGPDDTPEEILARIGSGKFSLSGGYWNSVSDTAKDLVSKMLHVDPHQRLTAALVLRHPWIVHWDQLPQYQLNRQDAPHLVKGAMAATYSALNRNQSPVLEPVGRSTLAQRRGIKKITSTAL
Calcium/calmodulin-dependent protein kinase type 1D (Homo sapiens), sequence (Q8IU85 whole entry, looked up): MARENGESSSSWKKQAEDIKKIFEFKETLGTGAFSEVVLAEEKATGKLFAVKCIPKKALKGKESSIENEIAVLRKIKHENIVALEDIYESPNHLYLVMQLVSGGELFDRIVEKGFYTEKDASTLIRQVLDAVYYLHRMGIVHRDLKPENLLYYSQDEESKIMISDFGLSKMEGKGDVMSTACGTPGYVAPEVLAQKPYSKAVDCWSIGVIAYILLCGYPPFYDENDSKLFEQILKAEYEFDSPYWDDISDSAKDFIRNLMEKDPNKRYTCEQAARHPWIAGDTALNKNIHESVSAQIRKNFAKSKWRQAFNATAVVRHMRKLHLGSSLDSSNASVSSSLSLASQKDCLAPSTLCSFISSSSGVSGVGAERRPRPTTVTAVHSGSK
Mitogen-activated protein kinase 3, sequence (P27361 whole entry): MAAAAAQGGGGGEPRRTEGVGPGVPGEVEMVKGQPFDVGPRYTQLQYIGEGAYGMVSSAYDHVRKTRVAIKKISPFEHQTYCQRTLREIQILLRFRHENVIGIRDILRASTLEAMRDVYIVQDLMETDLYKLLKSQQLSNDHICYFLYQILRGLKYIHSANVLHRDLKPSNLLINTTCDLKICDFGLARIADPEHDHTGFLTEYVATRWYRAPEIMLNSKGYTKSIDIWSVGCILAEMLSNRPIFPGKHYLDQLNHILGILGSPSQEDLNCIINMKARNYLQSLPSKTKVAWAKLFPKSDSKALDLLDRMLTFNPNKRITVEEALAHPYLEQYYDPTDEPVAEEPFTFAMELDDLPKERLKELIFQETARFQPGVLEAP
Cyclin-dependent kinase 16 (Homo sapiens), sequence (Q00536 whole entry): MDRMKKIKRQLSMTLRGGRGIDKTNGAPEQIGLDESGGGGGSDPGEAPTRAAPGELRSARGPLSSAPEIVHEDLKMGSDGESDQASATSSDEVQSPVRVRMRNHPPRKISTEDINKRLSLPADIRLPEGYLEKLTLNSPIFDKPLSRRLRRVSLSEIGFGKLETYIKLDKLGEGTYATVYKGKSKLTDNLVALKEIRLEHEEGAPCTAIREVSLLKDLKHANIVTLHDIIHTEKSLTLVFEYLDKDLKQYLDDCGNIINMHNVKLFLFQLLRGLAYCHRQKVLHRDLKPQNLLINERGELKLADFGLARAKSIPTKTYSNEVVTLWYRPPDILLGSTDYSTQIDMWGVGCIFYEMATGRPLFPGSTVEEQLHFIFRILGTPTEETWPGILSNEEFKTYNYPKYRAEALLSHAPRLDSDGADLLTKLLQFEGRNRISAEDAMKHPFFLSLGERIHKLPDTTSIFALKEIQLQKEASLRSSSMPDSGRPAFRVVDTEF
Serine/threonine-protein kinase 38 (Homo sapiens), sequence (Q15208 2-465 limits assumed): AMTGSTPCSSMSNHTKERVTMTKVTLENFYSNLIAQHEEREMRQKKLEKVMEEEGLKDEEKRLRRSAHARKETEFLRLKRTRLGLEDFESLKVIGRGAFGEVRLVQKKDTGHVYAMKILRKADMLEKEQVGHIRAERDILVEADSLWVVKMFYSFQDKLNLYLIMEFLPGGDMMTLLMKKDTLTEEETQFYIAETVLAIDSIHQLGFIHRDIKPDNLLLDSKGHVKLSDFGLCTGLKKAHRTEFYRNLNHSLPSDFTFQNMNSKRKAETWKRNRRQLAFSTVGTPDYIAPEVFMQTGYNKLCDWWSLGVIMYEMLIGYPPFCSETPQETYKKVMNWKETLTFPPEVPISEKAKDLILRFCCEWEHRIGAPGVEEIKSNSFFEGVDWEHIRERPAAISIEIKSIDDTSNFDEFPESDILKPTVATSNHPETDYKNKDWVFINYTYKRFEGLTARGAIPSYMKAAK
Serine/threonine-protein kinase PAK 5 (Homo sapiens), sequence (Q9P286 whole entry, looked up): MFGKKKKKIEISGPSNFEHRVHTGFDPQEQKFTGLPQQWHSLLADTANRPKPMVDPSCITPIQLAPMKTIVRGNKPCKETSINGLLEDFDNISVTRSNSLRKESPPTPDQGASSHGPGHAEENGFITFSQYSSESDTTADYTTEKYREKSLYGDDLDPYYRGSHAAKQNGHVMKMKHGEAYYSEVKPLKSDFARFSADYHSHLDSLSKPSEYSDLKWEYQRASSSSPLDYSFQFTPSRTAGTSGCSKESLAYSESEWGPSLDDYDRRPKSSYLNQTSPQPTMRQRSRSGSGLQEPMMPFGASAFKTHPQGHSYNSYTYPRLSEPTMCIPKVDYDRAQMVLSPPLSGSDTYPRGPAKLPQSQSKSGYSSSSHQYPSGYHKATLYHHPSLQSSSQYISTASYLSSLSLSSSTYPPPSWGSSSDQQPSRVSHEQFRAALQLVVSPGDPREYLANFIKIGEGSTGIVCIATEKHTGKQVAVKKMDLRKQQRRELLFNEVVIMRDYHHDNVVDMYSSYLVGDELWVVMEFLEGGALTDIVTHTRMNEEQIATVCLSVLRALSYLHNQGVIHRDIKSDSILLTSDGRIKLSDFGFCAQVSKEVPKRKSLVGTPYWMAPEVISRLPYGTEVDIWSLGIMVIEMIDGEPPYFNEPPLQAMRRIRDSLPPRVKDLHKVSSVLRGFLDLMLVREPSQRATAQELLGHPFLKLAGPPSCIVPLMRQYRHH
Cyclin-dependent kinase 6 (Homo sapiens), sequence (Q00534 whole entry): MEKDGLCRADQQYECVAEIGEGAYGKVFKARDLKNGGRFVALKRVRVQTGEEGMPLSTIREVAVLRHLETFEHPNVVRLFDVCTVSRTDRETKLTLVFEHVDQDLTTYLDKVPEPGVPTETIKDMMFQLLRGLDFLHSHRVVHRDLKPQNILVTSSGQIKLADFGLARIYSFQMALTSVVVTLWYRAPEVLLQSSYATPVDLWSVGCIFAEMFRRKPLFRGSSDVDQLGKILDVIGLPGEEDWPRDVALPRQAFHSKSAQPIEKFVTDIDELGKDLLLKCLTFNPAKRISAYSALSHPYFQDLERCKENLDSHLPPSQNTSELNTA
Cyclin-dependent kinase-like 1 (Homo sapiens), sequence (Q00532 whole entry): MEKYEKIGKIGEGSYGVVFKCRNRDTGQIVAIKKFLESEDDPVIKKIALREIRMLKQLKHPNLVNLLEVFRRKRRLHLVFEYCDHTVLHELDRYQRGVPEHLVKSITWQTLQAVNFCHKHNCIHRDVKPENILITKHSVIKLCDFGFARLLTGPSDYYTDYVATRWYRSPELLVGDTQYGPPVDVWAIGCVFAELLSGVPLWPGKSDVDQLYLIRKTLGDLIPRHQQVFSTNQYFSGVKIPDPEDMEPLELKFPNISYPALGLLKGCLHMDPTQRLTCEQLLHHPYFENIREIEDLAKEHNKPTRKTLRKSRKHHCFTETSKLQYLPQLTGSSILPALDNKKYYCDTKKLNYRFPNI
Serine/threonine-protein kinase 26 (Homo sapiens), sequence (Q9P289 2-416 limits assumed): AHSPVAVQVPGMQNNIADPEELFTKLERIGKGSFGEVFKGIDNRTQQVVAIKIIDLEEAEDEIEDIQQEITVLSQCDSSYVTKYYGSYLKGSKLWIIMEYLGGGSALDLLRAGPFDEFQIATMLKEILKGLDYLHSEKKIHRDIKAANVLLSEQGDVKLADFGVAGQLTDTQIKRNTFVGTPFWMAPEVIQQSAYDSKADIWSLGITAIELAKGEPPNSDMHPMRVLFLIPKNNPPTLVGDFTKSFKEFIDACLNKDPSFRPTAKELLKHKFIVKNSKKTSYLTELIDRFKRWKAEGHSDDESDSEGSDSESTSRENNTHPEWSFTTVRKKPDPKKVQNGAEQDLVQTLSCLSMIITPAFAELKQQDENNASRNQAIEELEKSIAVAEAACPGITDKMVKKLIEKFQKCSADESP
Serine/threonine-protein kinase 16 (Homo sapiens), sequence (O75716 whole entry): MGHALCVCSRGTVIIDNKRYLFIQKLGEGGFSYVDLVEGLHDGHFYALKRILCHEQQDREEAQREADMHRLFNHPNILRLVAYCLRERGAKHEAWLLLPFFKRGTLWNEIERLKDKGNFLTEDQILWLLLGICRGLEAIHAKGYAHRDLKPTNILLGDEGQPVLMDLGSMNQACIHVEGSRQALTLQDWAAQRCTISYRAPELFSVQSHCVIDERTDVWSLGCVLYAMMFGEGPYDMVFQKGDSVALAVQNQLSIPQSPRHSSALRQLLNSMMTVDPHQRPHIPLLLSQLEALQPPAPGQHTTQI

In the case of `Cn1cc(/C=C2/C(=O)Nc3ccc(S(N)(=O)=O)cc32)c2ccccc21`, the ΔTm – broadly, the change in melting temperature against a reference sample – in [1] worked out at 6.1 °C; in test [2] it was 3.4 °C; in [3], 4.3 °C; in test [4] it was 0.2 °C; in test [5] it was 4.8 °C; in test [6] it was 3.6 °C. In addition, the ΔTm in [7] was 2 °C; in test [8], 1.2 °C; in [9] it was 1.7 °C; in [10], -1.2 °C; in test [11], 1.9 °C; in test [12] it was 0.9 °C. In addition, the ΔTm is 5.7 °C in test [13]; -0.2 °C in test [14]; -0.4 °C in test [15]; 3.7 °C in [16]; 10.3 °C in test [17]; 0.2 °C in test [18].

On to `COC1=C2C[C@@H](C)C[C@H](OC)[C@H](O)[C@@H](C)/C=C(\C)[C@H](OC(N)=O)[C@@H](OC)/C=C\C=C(/C)C(=O)NC(=CC1=O)C2=O`, for which the ΔTm in test [1] is 0.3 °C; in [2], 0.5 °C; in test [3], 0 °C; in test [4], -0.5 °C; in test [5], -0.3 °C; in test [6] it was 0.2 °C. In addition, the ΔTm in [7] is 0.1 °C; in [8], 0.1 °C; in test [9], 0.4 °C; in test [10], 0.6 °C; in test [11] it was -0.4 °C; in [12], 0.5 °C. For the same molecule, the shift in melting temperature (ΔTm) is -0.4 °C in test [13]; 0.1 °C in test [14]; 0.1 °C in test [15]; -0.2 °C in [16]; 0 °C in [17]; -0.2 °C in [18].

As to `O=S(=O)(NCCNC/C=C/c1ccc(Br)cc1)c1cccc2cnccc12`, the ΔTm in test [1] is 1.7 °C; in test [2], 1 °C; in [3], 1.2 °C; in test [4], -0.1 °C; in test [5], 0.6 °C; in test [6], 1.7 °C. For the same molecule, the ΔTm in [7] is -0.1 °C; in test [8], -0.3 °C; in test [9], 0.5 °C; in test [10], 0.6 °C; in [11], 0.7 °C; in test [12], -0.2 °C. In addition, the ΔTm in test [13] is 1.2 °C; in [14], -0.4 °C; in test [15], -0.2 °C; in test [16] it was 1 °C; in test [17], 0 °C; in [18], 0.4 °C.

On to `O=[N+]([O-])c1ccc(-c2nc(-c3ccc(F)cc3)c(-c3ccncc3)[nH]2)cc1`, for which the ΔTm in test [1] was found to be 0.6 °C; in test [2] it was 0.7 °C; in test [3] it was 1 °C; in [4] it was 0 °C; in test [5] it was 0.7 °C; in test [6] it was 0.9 °C. Further, the ΔTm in test [7] was 0.2 °C; in test [8], 0.5 °C; in [9] it was 0.5 °C; in test [10] it was 0.3 °C; in test [11], -0.9 °C; in test [12], -0.5 °C. In addition, the ΔTm in test [13] amounted to 0.7 °C; in [14], 0.9 °C; in test [15], 1.4 °C; in [16], 0.1 °C; in test [17], 0 °C; in test [18] it was 14.8 °C.

Take `CC(C)c1cc(/C=C(\C#N)C(=O)NCCCc2ccccc2)cc(C(C)C)c1O`: the ΔTm in test [1] came to 0.8 °C; in test [2], 0.3 °C; in test [3] it was 0.7 °C; in test [4], 1.2 °C; in [5] it was 0.2 °C; in [6], 0.7 °C. Besides, the ΔTm in test [7] is 1.1 °C; in test [8] it was -0.1 °C; in test [9], 0.5 °C; in [10], -0.2 °C; in [11], -0.1 °C; in test [12] it was 2.1 °C. Moreover, the ΔTm in test [13] turned out to be 0.3 °C; in test [14], 0.3 °C; in test [15], 2.6 °C; in test [16] it was 1.2 °C; in test [17], 0.3 °C; in test [18], 0.1 °C.

In the case of `Nc1n[nH]c2nnc(-c3c(-c4ccccc4)nn4ccccc34)cc12`, the ΔTm in test [1] is 0.8 °C; in test [2], 1.2 °C; in [3] it was -0.4 °C; in test [4], 0.2 °C; in test [5], 1.7 °C; in test [6] it was 1.9 °C. The ΔTm in [7] is 0.1 °C; in test [8], 0.4 °C; in test [9] it was 0 °C; in [10], 0.2 °C; in [11], 0.2 °C; in test [12], -0.2 °C. Further, the ΔTm is 1 °C in test [13]; 1.7 °C in test [14]; 0.4 °C in test [15]; -0.1 °C in test [16]; 0.2 °C in test [17]; 4.5 °C in test [18].

In the case of `CC(C)n1cnc2c(NCc3ccccc3)nc(NCCCO)nc21`, the ΔTm was 0 °C in test [1]; 1 °C in test [2]; 0.4 °C in test [3]; -0.1 °C in [4]; 2.5 °C in test [5]; 0.3 °C in test [6]. In addition, the ΔTm in [7] is 0.1 °C; in test [8], 0.4 °C; in test [9], 0.6 °C; in test [10], 0.2 °C; in test [11] it was -0.5 °C; in test [12] it was 0.9 °C. The ΔTm in [13] is -0.3 °C; in [14], 0.2 °C; in test [15] it was -0.3 °C; in test [16], -0.6 °C; in [17], 0 °C; in test [18] it was 0.1 °C.
